Measured values taken from the supplement of paper PMC5579334.
± gives the standard deviation of the averaged measurements.

Legend:
HS-PSS [1] = experiment: drug sensitivity score (DSS, CellTiter-Glo viability, 72 h) (DSS (dimensionless)); higher = more sensitive; extreme values may be limits of the assay
Procedure, shortened: (§1)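 MPNST cell lines and primary human Schwann cells were seeded at 750–1000 cells per well into 384-well plates preprinted with each compound at five concentrations in 10-fold steps, then incubated 72 h at 37 °C, 5% CO2. CellTiter-Glo ATP luminescence gave viability, scaled between vehicle and positive-control wells, with duplicates averaged where present. Curves were fitted with a four-parameter logistic model. Percent inhibition refers to the top concentration, while drug sensitivity score and relative IC50, censored at the top concentration, come from these fits.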

HS-Sch-2 [2] = experiment: as above
Procedure, shortened: as §1

[3] = test system: HSC1 (primary human Schwann cells); experiment: as above
Procedure, shortened: as §1

[4] = test system: HSC2 (primary human Schwann cells); experiment: as above
Procedure, shortened: as §1

S1507-2 [5] = experiment: as above
Procedure, shortened: as §1

S462 [6] = experiment: as above
Procedure, shortened: as §1

ST8814 [7] = experiment: as above
Procedure, shortened: as §1

STS26T [8] = experiment: as above
Procedure, shortened: as §1

YST-1 [9] = experiment: as above
Procedure, shortened: as §1

HS-PSS [10] = experiment: drug sensitivity score (DSS, CellTox-Green cytotoxicity, 72 h) (DSS (dimensionless)); higher = more cytotoxic; extreme values may be limits of the assay
Procedure, shortened: (§2)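 For 72 h at 37 °C, MPNST cell lines and primary human Schwann cells were exposed in 384-well plates to five 10-fold compound dilutions. CellTox-Green, added before seeding at a final 1:1000 dilution, gave fluorescence from DNA released by disrupted cells. Signals were scaled to vehicle and positive-control wells, cultures failing plate quality control were left out, and four-parameter logistic fits were applied. Relative IC50 and drug sensitivity score were derived from the fits, with IC50 censored at the top concentration.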

[11] = test system: HSC1 (primary human Schwann cells); experiment: as above
Procedure, shortened: as §2

[12] = test system: HSC2 (primary human Schwann cells); experiment: as above
Procedure, shortened: as §2

S1507-2 [13] = experiment: as above
Procedure, shortened: as §2

ST8814 [14] = experiment: as above
Procedure, shortened: as §2

STS26T [15] = experiment: as above
Procedure, shortened: as §2

HS-PSS [16] = experiment: % inhibition of CellTiter-Glo viability at highest tested concentration (72 h), relative to DMSO and benzethonium chloride controls; higher = more inhibition
Procedure, shortened: as §1

HS-Sch-2 [17] = experiment: as above
Procedure, shortened: as §1

[18] = test system: HSC1 (primary human Schwann cells); experiment: as above
Procedure, shortened: as §1

[19] = test system: HSC2 (primary human Schwann cells); experiment: as above
Procedure, shortened: as §1

S1507-2 [20] = experiment: as above
Procedure, shortened: as §1

S462 [21] = experiment: as above
Procedure, shortened: as §1

ST8814 [22] = experiment: as above
Procedure, shortened: as §1

STS26T [23] = experiment: as above
Procedure, shortened: as §1

YST-1 [24] = experiment: as above
Procedure, shortened: as §1

| SMILES | drug sensitivity score (HS-PSS [1]) | drug sensitivity score (HS-Sch-2 [2]) | drug sensitivity score [3] | drug sensitivity score [4] | drug sensitivity score (S1507-2 [5]) | drug sensitivity score (S462 [6]) | drug sensitivity score (ST8814 [7]) | drug sensitivity score (STS26T [8]) | drug sensitivity score (YST-1 [9]) | drug sensitivity score (HS-PSS [10]) | drug sensitivity score [11] | drug sensitivity score [12] | drug sensitivity score (S1507-2 [13]) | drug sensitivity score (ST8814 [14]) | drug sensitivity score (STS26T [15]) | % inhibition (HS-PSS [16]) [%] | % inhibition (HS-Sch-2 [17]) [%] | % inhibition [18] [%] | % inhibition [19] [%] | % inhibition (S1507-2 [20]) [%] | % inhibition (S462 [21]) [%] | % inhibition (ST8814 [22]) [%] | % inhibition (STS26T [23]) [%] | % inhibition (YST-1 [24]) [%] |
| --- | --- | --- | --- | --- | --- | --- | --- | --- | --- | --- | --- | --- | --- | --- | --- | --- | --- | --- | --- | --- | --- | --- | --- | --- |
| Clc1ccc(C(c2ccccc2Cl)C(Cl)Cl)cc1 (configuration not stated) [Mitotane] (max concentration tested 10000 nM) | 0 | 0 | 0 | 0 | 0 | 0 | 0 | 0 | 0 | 0 | 0 | 0 | 3.77 ± 5.3 | 0 | 0 | -3.05 | 1.46 | 4.91 | 1.58 | 2.14 ± 4.9 | 2.7 ± 7.9 | 6.22 | 4.66 | 0.23 |
| O=C(Nc1ccncc1)C(=O)c1cn(Cc2ccc(Cl)cc2)c2ccccc12 [Indibulin] (max concentration tested 10000 nM) | 2.56 | 10.5 | 11.2 | 10.5 | 15 ± 3.3 | 16.5 ± 0.54 | 14.4 | 20.1 | 10.2 | 0 | 5.82 | 7.54 | 10.8 ± 3.9 | 12.6 | 21.5 | 24.1 | 83.6 | 67.6 | 78.1 | 80.5 ± 4.1 | 93.04 ± 0.44 | 74.8 | 93 | 66.2 |
| COc1cc([C@@H]2c3cc4c(cc3[C@@H](O[C@@H]3O[C@@H]5CO[C@@H](C)O[C@H]5[C@H](O)[C@H]3O)[C@H]3COC(=O)[C@H]23)OCO4)cc(OC)c1O [Etoposide] (max concentration tested 10000 nM) | 3.08 | 8.86 | 7.17 | 11.2 | 5.59 ± 0.81 | 11.55 ± 0.037 | 5.79 | 7.33 | 14.5 | 0 | 2.21 | 3.62 | 1.82 ± 2.4 | 3.52 | 5.16 | 33 | 79.1 | 57.3 | 63.6 | 59.8 ± 1 | 90.4 ± 2.4 | 70.7 | 68 | 73.5 |
| CNC(=O)c1ccc(N2C(=S)N(c3ccc(C#N)c(C(F)(F)F)c3)C(=O)C2(C)C)cc1F [Enzalutamide] (max concentration tested 10000 nM) | 0 | 0 | 0.165 | 0 | 1.03 ± 1.4 | 0 | 0.0064 | 0 | 0 | 0 | 0 | 0 | 2.11 ± 3 | 0 | 0 | 7.35 | -3.43 | 14.3 | -3.12 | 14.2 ± 18 | -3 ± 1.3 | 11.6 | 3.2 | 4.16 |
| CN(Cc1cnc2nc(N)nc(N)c2n1)c1ccc(C(=O)N[C@@H](CCC(=O)O)C(=O)O)cc1 [Methotrexate] (max concentration tested 5000 nM) | 0 | 13.7 | 0 | 0.0797 | 1.24 ± 1.8 | 19.9 ± 4.6 | 6.3 | 25.9 | 6.23 | 0.89 | 0 | 0 | 0 | 0.851 | 4.94 | -5.89 | 58.8 | 3.1 | 13.5 | -2.04 ± 33 | 70.2 ± 8.4 | 38.2 | 62.5 | 24.6 |
| Cc1cc2c(C(C)C)c(O)c(O)c(C=O)c2c(O)c1-c1c(C)cc2c(C(C)C)c(O)c(O)c(C=O)c2c1O [AT 101] (max concentration tested 100000 nM) | 9.43 | 15.1 | 16.2 | 20.2 | 8.69 ± 1.2 | 16 ± 1.1 | 12.6 | 11.8 | 15.2 | 2.34 | 4.09 | 0 | 0 | 0.0013 | 0 | 101 | 101 | 94.7 | 93.6 | 95.6 ± 1.6 | 95.03 ± 0.8 | 95.4 | 96.6 | 101 |
| CC(=O)Nc1ccc(C(=O)Nc2ccccc2N)cc1 [Tacedinaline] (max concentration tested 1000 nM) | 0 | 0 | 0 | 0 | 0 | 0 | 0 | 0 | 0 | 0 | 0 | 0 | 0 | 0 | 0 | 0.39 | -2.17 | 6.93 | 0.407 | 2.24 ± 3.5 | 6.18 ± 0.36 | -2.81 | 4.09 | 9.24 |
| COC(=O)C[C@](O)(CCCC(C)(C)O)C(=O)O[C@@H]1C(OC)=C[C@]23CCCN2CCc2cc4c(cc2[C@H]13)OCO4 [Omacetaxine] (max concentration tested 10000 nM) | 23.1 | 26 | 25.4 | 26.6 | 25.33 ± 0.068 | 31.4 ± 0.81 | 25.2 | 27.9 | 36.4 | 1.24 | 8.49 | 11.7 | 13.4 ± 3 | 5 | 15 | 80.3 | 102 | 92 | 96.2 | 98.539 ± 0.044 | 99.121 ± 0.0091 | 88.6 | 98.6 | 99.5 |
| O=P1(N(CCCl)CCCl)NCCCO1 (configuration not stated) [Cyclophosphamide] (max concentration tested 40000 nM) | 0 | 0 | 0 | 0 | 0 | 0 | 0 | 0 | 0 | 0 | 0 | 0 | 2.5 ± 3.5 | 0 | 0 | -15 | -7.77 | 8.38 | -1.29 | -7.33 ± 17 | -8.093 ± 0.056 | -3.77 | -1.7 | 3.85 |
| Nc1ncn([C@H]2C[C@H](O)[C@@H](CO)O2)c(=O)n1 [Decitabine] (max concentration tested 10000 nM) | 0 | 2.19 | 3.33 | 1.61 | 0.377 ± 0.53 | 4.99 ± 0.29 | 1.82 | 0.745 | 0 | 0 | 0 | 0 | 0.342 ± 0.48 | 0 | 0 | 4.62 | 27.8 | 20.3 | 27.7 | 16.3 ± 5.8 | 37.4 ± 5.4 | 18.8 | 16.2 | 4.17 |
| Cc1ccc(C(=O)N(CCCN)[C@@H](c2oc3cc(Cl)ccc3c(=O)c2Cc2ccccc2)C(C)C)cc1 (max concentration tested 100 nM) | 6.42 | 19 | 0 | 0 | 0.0057 ± 0.0081 | 0 | 0 | 0 | 18.9 | 0 | 0 | 0 | 0 | 0 | 0 | 26.9 | 87.1 | 7.2 | -19.5 | 5.6 ± 6.5 | -2.08 ± 8.3 | 5.16 | 2.24 | 76 |
| CN(c1ccccc1CNc1nc(Nc2ccc3c(c2)CC(=O)N3)ncc1C(F)(F)F)S(C)(=O)=O (max concentration tested 10000 nM) | 5.97 | 6.95 | 14.5 | 13.8 | 7.1 ± 0.82 | 11.5 ± 0.24 | 7.26 | 9.12 | 10.6 | 0.56 | 1.33 | 1.33 | 2.52 ± 0.6 | 3.58 | 6.59 | 83.9 | 101 | 78.8 | 84 | 71.3 ± 1.1 | 100.3 ± 0.78 | 71.9 | 95.3 | 100 |
| CC(C)(C)c1cnc(CSc2cnc(NC(=O)C3CCNCC3)s2)o1 [SNS-032] (max concentration tested 10000 nM) | 25.9 | 27.9 | 36.9 | 38 | 18.6 ± 1.5 | 36.8 ± 1.5 | 24.5 | 31.5 | 29.4 | 1.68 | 12.8 | 14.3 | 0 | 14.4 | 23.2 | 70.5 | 98.6 | 79.4 | 86.5 | 80.6 ± 3.5 | 104 ± 0.55 | 87.2 | 97.5 | 99.9 |
